According to patent publication US20180296663A1 (priority 2015, published 2018):

Key:
CD4+ T cells = system: CD4+ T cells; set-up: species or system BALB/c mice; conditions: mouse, in vivo
CD8+ T cells = system: CD8+ T cells; set-up: species or system Balb/c mice; conditions: mouse, in vivo

| Compound | frequencies of HA-specific IFN-γ+/TNF+ CD4+ T cells (CD4+ T cells) | frequencies of HA-specific IFN-γ+/TNF+CD4+ T cells (CD4+ T cells) | number of IFNγ/TNF double-positive multifunctional CD8+ T cells in the spleen (CD8+ T cells) |
| --- | --- | --- | --- |
| Nc1nc2c(ncn2[C@@H]2O[C@@H]3COP(=O)(O)O[C@H]4[C@@H](O)[C@H](n5cnc6c(=O)[nH]c(N)nc65)O[C@@H]4COP(=O)(O)O[C@H]3[C@H]2O)c(=O)[nH]1 [c-di-GMP, cyclic diguanylate monophosphate] | higher frequencies | higher frequencies | – |
| HMGB1: high mobility group protein (HMGB) compound, which may act as an endogenous immunomodulator | – | – | significant increase |
